In patent publication US4579861A, “Aryloxypropanolamine derivatives, pharmaceutical compositions and adrenegic thereof” (Pierrel S.p.A., priority 1983, dated 1986):
pIC50: −log10 of the molar value. Where a name gives a salt, the structure may show the parent alone. Read-outs that look alike come from different tables or passages of the source.

Legend:
in vivo = details: mouse, iv
Description: Charles River male CD1 mice, weighing 25 g were used. The administration volume of the compounds, solubilized in H2 O and exceptionally in dimethylsulfoxide, was 0.02 ml/10 g of body weight.

β1 (guinea pig atria) = target: T1, β1 (guinea pig atria) (Cavia porcellus, UniProt H0W3H1); experiment: In vitro β-blocking activity, guinea pig atria stimulated with isopropylnoradrenaline (INA); assay type: cell-based, guinea pig (Hartley albino); details: INA 10^-8 M, 32° C.
T1 construct: The atria and the trachea have been suspended respectively in Ringer oxygenated solution; from tissue; host or cells: isolated atria of Hartley albino guinea pigs
Description: (§1) Hartley albino guinea pigs of 450 g average weight were used. The atria and the trachea have been suspended respectively in Ringer oxygenated solution at 32° C., and in Krebs carboxygenated solution medicated with pilocarpine, at 37° C.
(§2) After 30' minute stabilization the samples were stimulated with a single submaximal concentration of isopropylnoradrenaline (INA) (10^-8 M for the atria and 10^-7 M for the trachea) in the absence or presence of different antagonist's concentrations.
(§3) The percent inhibitions of the chronotropic and positive inotropic effect (atria) and of relaxation (trachea) were evaluated and the IC50 values were calculated therefrom.

β2 (guinea pig trachea) = β2 (guinea pig trachea) (Cavia porcellus, UniProt Q8K4Z4); experiment: cell-based; parameters: species or system guinea pig (Hartley albino)
Description: as §1, §2, §3

β1 = experiment: β-blocking activity on conscious rats, i.v. (inhibition of INA positive chronotropic effect); assay type: in vivo, rat (male Wistar); details: 2 rats each compound
Source text: The arterial pressure (AP) and heart rate (HR) were graphically recorded on a type R. multichannel Beckman poligraph.

β1 receptors = experiment: Inhibition of 3H-DHA (dihydroalprenolol) binding to β1 receptors; details: for cardioselectivity degree compared with reference compounds: 3H-DHA binding, in words; for pIC50: read-out: IC50 β1 (inhibition of H^3-DHA binding), [3H]dihydroalprenolol binding, β1
β2 receptors = experiment: Inhibition of 3H-DHA (dihydroalprenolol) binding to β2 receptors; details: for affinity for the β2 receptors compared with β1 receptors: 3H-DHA binding, in words; for pIC50: read-out: IC50 β2 (inhibition of H^3-DHA binding), [3H]dihydroalprenolol binding, β2
[1] = guinea pig atria, β1, chronotropic effect, read-out: β-Blocking activity in vitro IC50, Atria chronotropism × 10^-7
[2] = guinea pig atria, β1, positive inotropic effect, read-out: β-Blocking activity in vitro IC50, Atria inotropism × 10^-7
[3] = guinea pig trachea, β2, relaxation, INA 10^-7 M, 37° C., pilocarpine, read-out: β-Blocking activity in vitro IC50, Trachea β2 × 10^-7
[4] = 1 mg/kg i.v., could be undervalued by reflex tachycardia
[5] = read-out: β-Blocking activity in vitro IC50, Trachea β2 × 10^-7
[6] = β-Blocking activity in vitro IC50, Atria chronotropism × 10^-7, guinea pig atria, β1, chronotropic effect
[7] = β-Blocking activity in vitro IC50, Atria inotropism × 10^-7, guinea pig atria, β1, positive inotropic effect
[8] = 3 mg/kg i.v. (Ia-c), could be undervalued by reflex tachycardia

T1 sequence (H0W3H1 1-470): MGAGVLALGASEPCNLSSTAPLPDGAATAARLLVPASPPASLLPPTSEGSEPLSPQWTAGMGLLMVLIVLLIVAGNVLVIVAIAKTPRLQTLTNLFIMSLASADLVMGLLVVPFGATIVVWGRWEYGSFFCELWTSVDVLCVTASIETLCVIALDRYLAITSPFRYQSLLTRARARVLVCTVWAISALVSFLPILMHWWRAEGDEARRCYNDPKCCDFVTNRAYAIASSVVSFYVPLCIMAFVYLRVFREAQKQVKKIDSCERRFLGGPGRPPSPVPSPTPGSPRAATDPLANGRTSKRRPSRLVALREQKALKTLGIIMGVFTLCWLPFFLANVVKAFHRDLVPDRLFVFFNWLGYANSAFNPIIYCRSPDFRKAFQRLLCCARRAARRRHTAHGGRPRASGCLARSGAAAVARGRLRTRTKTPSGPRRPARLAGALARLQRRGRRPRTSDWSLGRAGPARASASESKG
Chain of β2 (guinea pig trachea) (Q8K4Z4 whole entry): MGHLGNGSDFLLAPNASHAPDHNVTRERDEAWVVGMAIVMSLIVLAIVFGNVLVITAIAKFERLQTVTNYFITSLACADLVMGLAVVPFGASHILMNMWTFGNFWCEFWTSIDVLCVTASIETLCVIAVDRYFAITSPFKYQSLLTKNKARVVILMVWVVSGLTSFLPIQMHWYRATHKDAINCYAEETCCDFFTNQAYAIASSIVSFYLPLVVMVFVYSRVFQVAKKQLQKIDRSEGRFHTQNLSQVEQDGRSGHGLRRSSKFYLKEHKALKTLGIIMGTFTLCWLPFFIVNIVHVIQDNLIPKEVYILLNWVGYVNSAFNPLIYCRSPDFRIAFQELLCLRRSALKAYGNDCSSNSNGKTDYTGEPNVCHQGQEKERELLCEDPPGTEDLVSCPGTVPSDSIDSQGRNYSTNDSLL

Cc1cccc(OCC(O)CNCCN2C(=O)CN(c3ccc(Cl)cc3)C2=O)c1 (stereo not shown) [Ie]
LD50 at 168 h (in vivo): 25 mg/kg | pIC50 (β1 (guinea pig atria); [1]): < 5.00 | pIC50 (β1 (guinea pig atria); [2]): < 5.00 | pIC50 (β2 (guinea pig trachea); [3]): < 5.00 | Vivo inhib. %, conscious rat i.v., chronotropism β1 (β1; [4]): 19%

COc1cccc(N2CC(=O)N(CCNCC(O)COc3ccccc3C#N)C2=O)c1 (stereo not shown) [In, 1-(3-Methoxyphenyl)-3-{2-[3-(2-cyanophenoxy)-2-hydroxypropyl]-aminoethyl}hydantoin hydrochloride]
LD50 at 168 h (in vivo): 120 mg/kg | pIC50 (β1 (guinea pig atria); [1]): 7.12 | pIC50 (β1 (guinea pig atria); [2]): 6.89 | pIC50 (β2 (guinea pig trachea); [3]): 6.19

COc1ccc(N2CC(=O)N(CCNCC(O)COc3ccccc3C#N)C2=O)cc1.Cl (stereo not shown) [Il, 1-(4-Methoxyphenyl)-3-{2-[3-(2-cyanophenoxy)-2-hydroxypropyl]aminoethyl}hydantoin hydrochloride]
LD50 at 168 h (in vivo): 135 mg/kg | pIC50 (β1 (guinea pig atria); [1]): 7.35 | pIC50 (β1 (guinea pig atria); [2]): 7.02 | pIC50 (β2 (guinea pig trachea); [5]): 6.44

CC(C)NCC(O)COc1ccc(CC(N)=O)cc1 (stereo not shown) [Atenolol, atenolol, reference compound]
pIC50 (β1 (guinea pig atria); [6]): 5.82 | pIC50 (β1 (guinea pig atria); [7]): 5.77

COc1ccc(N2CC(=O)N(CCNCC(O)COc3cccc(C)c3)C2=O)cc1OC (stereo not shown) [Ih]
LD50 at 168 h (in vivo): 111 mg/kg | pIC50 (β1 (guinea pig atria); [1]): 6.34 | pIC50 (β1 (guinea pig atria); [2]): 6.05 | pIC50 (β2 (guinea pig trachea); [3]): 5.96 | Vivo inhib. %, conscious rat i.v., chronotropism β1 (β1; [4]): 58%

O=C1CN(c2ccccc2)C(=O)N1CCNCC(O)COc1ccccc1 (stereo not shown) [Ia, 1-Phenyl-3-{[2-(3-phenoxy-2-hydroxy)propylamino]ethyl}hydantoin hydrochloride]
LD50 at 168 h (in vivo): 96 mg/kg | pIC50 (β1 (guinea pig atria); [1]): 6.85 | pIC50 (β1 (guinea pig atria); [2]): 6.37 | pIC50 (β2 (guinea pig trachea); [3]): 5.17 | Vivo inhib. %, conscious rat i.v., chronotropism β1 (β1; [8]): 59%

O=C1CN(c2ccccc2)C(=O)N1CCNCC(O)COc1ccccc1Cl (stereo not shown) [Ip]
LD50 at 168 h (in vivo): 80 mg/kg | pIC50 (β1 (guinea pig atria); [1]): 7.27 | pIC50 (β1 (guinea pig atria); [2]): 6.94 | pIC50 (β2 (guinea pig trachea); [3]): 6.22

N#Cc1ccccc1OC[C@@H](O)CNCCN1C(=O)CN(c2ccccc2)C1=O [Ic(S), (S)-(-)-1-Phenyl-3-{2-[3-(2-cyanophenoxy)-2-hydroxypropyl]aminoethyl}hydantoin hydrochloride]
pIC50 (β1 (guinea pig atria); [1]): 7.54 | pIC50 (β1 (guinea pig atria); [2]): 7.22 | pIC50 (β2 (guinea pig trachea); [5]): 6.22

N#Cc1ccccc1OCC(O)CNCCN1C(=O)CN(c2ccccc2)C1=O (stereo not shown) [Ic]
LD50 at 168 h (in vivo): 99 mg/kg | pIC50 (β1 (guinea pig atria); [1]): 6.92 | pIC50 (β1 (guinea pig atria); [2]): 7.05 | pIC50 (β2 (guinea pig trachea); [3]): 5.70 | Vivo inhib. %, conscious rat i.v., chronotropism β1 (β1; [8]): 67% | cardioselectivity degree compared with reference compounds (β1 receptors): remarkably higher cardioselectivity degree than that of the reference compounds | pIC50 (β1 receptors): 8.17 | affinity for the β2 receptors compared with β1 receptors (β2 receptors): remarkably lower than the one shown for β1 receptors | pIC50 (β2 receptors): 5.03

COCCc1ccc(OCC(O)CNC(C)C)cc1 (stereo not shown) [Metoprolol, metoprolol, reference compound]
LD50 at 168 h (in vivo): 103 mg/kg | Vivo inhib. %, conscious rat i.v., chronotropism β1 (β1; [4]): 60%

O=C1CN(c2ccc(Cl)cc2)C(=O)N1CCNCC(O)COc1ccccc1 (stereo not shown) [Id]
LD50 at 168 h (in vivo): 45 mg/kg | pIC50 (β1 (guinea pig atria); [1]): 6.11 | pIC50 (β1 (guinea pig atria); [2]): 5.92 | pIC50 (β2 (guinea pig trachea); [3]): < 5.00 | Vivo inhib. %, conscious rat i.v., chronotropism β1 (β1; [4]): 18%

CC(C)NCC(O)COc1cccc2ccccc12 (stereo not shown) [Propranolol, propranolol, reference compound]
Vivo inhib. %, conscious rat i.v., chronotropism β1 (β1; 0.1 mg/kg i.v. (propranolol)): 73%

Cc1cccc(OCC(O)CNCCN2C(=O)CN(c3ccccc3)C2=O)c1 (stereo not shown) [Ib]
LD50 at 168 h (in vivo): 69 mg/kg | pIC50 (β1 (guinea pig atria); [1]): 6.37 | pIC50 (β1 (guinea pig atria); [2]): 6.03 | pIC50 (β2 (guinea pig trachea); [3]): 5.21 | Vivo inhib. %, conscious rat i.v., chronotropism β1 (β1; [8]): 50%

Cl.N#Cc1ccccc1OCC(O)CNCCN1C(=O)CN(c2ccc3c(c2)OCO3)C1=O (stereo not shown) [Im, 1-(3,4-Methylendioxyphenyl)-3-{2-[3-(2-cyanophenoxy)-2-hydroxypropyl]aminoethyl}hydantoin hydrochloride]
LD50 at 168 h (in vivo): 132 mg/kg | pIC50 (β1 (guinea pig atria); [1]): 7.39 | pIC50 (β1 (guinea pig atria); [2]): 7.20 | pIC50 (β2 (guinea pig trachea); [5]): 6.11

N#Cc1ccccc1OCC(O)CNCCN1C(=O)CN(c2ccc(Cl)cc2)C1=O (stereo not shown) [If]
LD50 at 168 h (in vivo): 70 mg/kg | pIC50 (β1 (guinea pig atria); [1]): 6.68 | pIC50 (β1 (guinea pig atria); [2]): 6.57 | pIC50 (β2 (guinea pig trachea); [3]): 5.22 | Vivo inhib. %, conscious rat i.v., chronotropism β1 (β1; [4]): 68%

COc1ccc(N2CC(=O)N(CCNCC(O)COc3ccccc3)C2=O)cc1OC (stereo not shown) [Ig]
LD50 at 168 h (in vivo): 126 mg/kg | pIC50 (β1 (guinea pig atria); [1]): 6.64 | pIC50 (β1 (guinea pig atria); [2]): 6.68 | pIC50 (β2 (guinea pig trachea); [3]): 5.82 | Vivo inhib. %, conscious rat i.v., chronotropism β1 (β1; [4]): 53%

N#Cc1ccccc1OC[C@H](O)CNCCN1C(=O)CN(c2ccccc2)C1=O [Ic(R), (R)-(+)-1-Phenyl-3-{2-[3-(2-cyanophenoxy)-2-hydroxypropyl]aminoethyl}hydantoin hydrochloride]
pIC50 (β1 (guinea pig atria); [1]): 5.85 | pIC50 (β1 (guinea pig atria); [2]): 5.47 | pIC50 (β2 (guinea pig trachea); [5]): < 4.00

Cc1ccccc1OCC(O)CNCCN1C(=O)CN(c2ccccc2)C1=O (stereo not shown) [Io]
LD50 at 168 h (in vivo): 60 mg/kg | pIC50 (β1 (guinea pig atria); [1]): 6.94 | pIC50 (β1 (guinea pig atria); [2]): 6.82 | pIC50 (β2 (guinea pig trachea); [3]): 5.80

CC(CCc1ccccc1)NCC(O)c1ccc(O)c(C(N)=O)c1 (stereo not shown) [Labetalol, labetalol, reference compound]
pIC50 (β1 (guinea pig atria); [6]): 6.62 | pIC50 (β1 (guinea pig atria); [7]): 6.68 | pIC50 (β2 (guinea pig trachea)): 5.96 | Vivo inhib. %, conscious rat i.v., chronotropism β1 (β1; [4]): 82%

COc1ccc(N2CC(=O)N(CCNCC(O)COc3ccccc3C#N)C2=O)cc1OC (stereo not shown) [Ii]
LD50 at 168 h (in vivo): 137 mg/kg | pIC50 (β1 (guinea pig atria); [1]): 7.09 | pIC50 (β1 (guinea pig atria); [2]): 6.72 | pIC50 (β2 (guinea pig trachea); [3]): 6.37 | Vivo inhib. %, conscious rat i.v., chronotropism β1 (β1; [4]): 70% | cardioselectivity degree compared with reference compounds (β1 receptors): remarkably higher cardioselectivity degree than that of the reference compounds | pIC50 (β1 receptors): 8.04 | affinity for the β2 receptors compared with β1 receptors (β2 receptors): remarkably lower than the one shown for β1 receptors | pIC50 (β2 receptors): 6.40
